Laboratory results published in patent US10653651B2, “Kit for treating cancer with low molecular weight components of aurin tricarboxylic acid complex” (Aurin Biotech Inc., priority 2014, dated 2020).
Like-named read-outs stand apart in the source and are kept apart here.

Legend:
[1] = tested on: human carcinoma SW 480 cells; experiment: Lactic dehydrogenase release from SW 480 cells; type: cell-based; conditions: n=4, read-out: IC50, lactate dehydrogenase release from SW 480 cells
Protocol: (§1) Experiment 4 was designed to confirm apoptotic cell death of U251 cells induced by ATA, AQA, AHA, and ATAC by measuring release of lactic dehydrogenase into the cell medium. For serum lactate dehydrogenase determination, reaction supernatants ([…]) were pipetted into the wells of 96-well plates, followed by the addition of […] lactate solution (36 mg/mL in PBS) and […] INT (iodonitrotetrazolium chloride, 2-(4-iodophenyl)-3-(4-nitrophenyl)-5-phenyl-2H-tetrazolium chloride) solution (2 mg/mL in PBS). The enzymatic reaction was started by addition of […] of NAD^+/diaphorase solution (3 mg/mL NAD^+; 2.3 mg solid/mL diaphorase). After 1 h, optical densities were measured with a microplate reader using a 490 nm filter. The amount of LDH released was expressed as a percentage of the value obtained in comparative cells where cells were 100% lysed by 1% Triton X-100.
Experiment 23 was designed to determine the effect of ATA, AQA, 15 AHA and ATAC on growth of the human colorectal cancer cell line SW 480. The protocol was identical to that used in Experiment 15(b) except that human colorectal cancer SW480 cells were utilized. Experiment 24 was designed to determine if apoptotic death of human carcinoma SW 480 cells was induced by ATA, AQA, AHA, and ATAC as determined by the release of lactic dehydrogenase into the cell medium. The protocol was identical to that used in Experiment 15(d) except that human carcinoma SW480 cells were used and the growth medium was DMEM.

[2] = tested on: BT 474 human breast cancer cell line; experiment: BT 474 cell growth in zymosan-activated human serum (MTT cell viability); type: cell-based; conditions: BT 474 cells, 15% human serum, n=4, read-out: IC50, inhibition of BT 474 cell growth induced by zymosan-activated human serum complement
Protocol: (§2) Experiment 1 was designed to determine the effect of ATA, AHA, AQA and ATAC on U251 cell growth in the presence of complement activated human serum. In Experiment 1(a), U251 cells were treated with various concentrations of human serum (1, 5, 7.5, 10, 12.5, 15%) in DMEM and incubated with 1 μg/mL zymosan at 37° C. for 72 h. Control U251 cells (CON) were incubated in fresh DMEM only. As a further control U251 cells were treated with 10% human serum heated at 56° C. for 30 min to heat inactivate complement (HIS) before incubation with 1 μg/ml zymosan. In Experiment 1(b), U251 cells were treated with various concentrations of ATAC, ATA, AQA and AHA (0.1, 1, 5, 10, 30, 50 μM) in DMEM with 15% human serum and incubated with 1 μg/mL zymosan at 37 ° C. for 72 h. In both Experiments 1(a) and 1(b), following incubation, cell viability was evaluated by MTT (3-[4,5-dimethylthiazol-2-yl]-2,5 diphenyl tetrazolium bromide) assays by adding MTT to the cell cultures to reach a final concentration of 1 mg/mL. Following a 1 h incubation at 37° C., the dark crystals formed were dissolved by adding a SDS/DMF extraction buffer (300 μL, 20% sodium dodecyl sulfate, 50% N,N-dimethylformamide, pH 4.7). Plates were subsequently incubated overnight at 37° C. and optical densities at 570 nm were measured by transferring 100 μL aliquots to 96-well plates and using a plate reader with a corresponding filter.
Experiment 13 was designed to determine the effect of ATA, AQA, AHA and ATAC on BT 474 cell growth. The protocol was identical to that used in Experiment 1(b) except BT 474 cells were used.

[3] = tested on: K562 human chronic myelogenous leukemia cell line; experiment: K562 cell growth in zymosan-activated human serum (MTT cell viability); type: cell-based
Protocol: as §2
Experiment 17 was designed to determine the effect of ATA, AQA, AHA and ATAC on K562 human chronic myelogenous leukemia cell growth. The protocol was identical to that used in Experiment 15(b) except that K562 human chronic myelogenous were utilized and the growth medium was Iscove's.

[4] = tested on: colorectal adenocarcinoma LS180 cells; experiment: Lactic dehydrogenase release from LS180 cells; type: cell-based, human; conditions: n=4, read-out: IC50, lactate dehydrogenase release from LS180 cells
Protocol: as §1
Experiment 20 was designed to determine if apoptotic death of colorectal adenocarcinoma LS180 cells was induced by ATA, AQA, AHA, and ATAC as determined by the release of lactic dehydrogenase into the cell medium. The protocol was identical to that used in Experiment 18(b) except that colorectal adenocarcinoma cells were used.

[5] = tested on: K562 human chronic myelogenous leukemia cells; experiment: Lactic dehydrogenase release from K562 cells; type: cell-based; conditions: n=4, read-out: IC50, lactate dehydrogenase release from K562 cells
Protocol: as §1
Experiment 18 was designed to determine if apoptotic cell death of K562 human chronic myelogenous leukemia cells was induced by ATA, AQA, AHA, and ATAC as determined by the release of lactic dehydrogenase into the cell medium. The protocol was identical to that used in Experiment 16(b) except that K562 human chronic myelogenous leukemia cells were used.

[6] = tested on: A549 human lung cancer cell line; experiment: A549 cell growth in zymosan-activated human serum (MTT cell viability); type: cell-based; conditions: A549 cells, 15% human serum, n=4, read-out: IC50, inhibition of A549 cell growth induced by zymosan-activated human serum complement
Protocol: as §2
(§3) Experiment 5 was designed to determine the effect of ATA, AHA, AQA and ATAC on BxPC-3 cell growth in the presence of complement activated human serum.
Experiment 9 was designed to determine the effect of ATA, AQA, AHA and ATAC on A549 cell growth. The protocol was identical to that used in Experiment 5(b) except A549 cells were used.

[7] = tested on: BxPC-3 human pancreatic adenocarcinoma cell line; experiment: BxPC-3 cell growth in zymosan-activated human serum (MTT cell viability); type: cell-based; conditions: BxPC-3 cells, RPMI 1640, 15% human serum, 1 μg/mL zymosan, 72 h, n=4, read-out: IC50, inhibition of BxPC-3 cell growth induced by zymosan-activated human serum complement
Protocol: as §2, §3

BxPC-3 cells = experiment: Lactic dehydrogenase release from BxPC-3 cells; type: cell-based, human; conditions: n=4, read-out: IC50, lactate dehydrogenase release from BxPC-3 cells
Protocol: as §1
Experiment 8 was designed to confirm apoptotic cell death of BxPC-3 cells induced by ATA, AQA, AHA, and ATAC by the release of lactic dehydrogenase into the cell medium.

U251 cells = experiment: Lactic dehydrogenase release from U251 cells; type: cell-based, human; conditions: n=4, read-out: IC50, lactate dehydrogenase release from U251 cells
Protocol: as §1

[8] = K562 cells, Iscove's medium, 15% human serum, zymosan, MTT, n=4, read-out: IC50, inhibition of K562 cell growth induced by zymosan-activated human serum complement

Molecule | IC50 ([1]; Homo sapiens, SW480, DMEM) | IC50 [2] | IC50 ([3]; Homo sapiens, K562, read-out: IC50, inhibition of K562 cell growth induced by zymosan-activated human serum complement) | IC50 ([4]; Homo sapiens) | IC50 ([5]; Homo sapiens) | IC50 [6] | IC50 [7] | IC50 (BxPC-3 cells; Homo sapiens) | IC50 (U251 cells; Homo sapiens, U-251, LDH as % of Triton X-100 lysis) | IC50 ([1]; DMEM) | IC50 [3, 8] | IC50 [4] | IC50 [5] | IC50 (BxPC-3 cells) | IC50 (U251 cells; LDH as % of Triton X-100 lysis)
O=C(O)C1=CC(=C(c2ccc(O)c(C(=O)O)c2)c2ccc(O)c(C(=O)O)c2)C=CC1=O [ATA, aurin tricarboxylic acid] | 4.7 µM | 5.9 µM | 4.5 µM | 4.9 µM | 4.7 µM | 7.2 µM | 6.5 µM | 7.9 µM | 7.6 µM |  |  |  |  |  | 
aurin hexacarboxylic acid [AHA] |  | 5.8 µM |  |  |  | 7.5 µM | 6.8 µM |  |  | 4.9 µM | 4.6 µM | 5 µM | 4.6 µM | 8.1 µM | 7.7 µM
aurin quadracarboxylic acid [AQA] |  | 6 µM |  |  |  | 7.4 µM | 6.7 µM |  |  | 4.6 µM | 4.7 µM | 5.1 µM | 4.6 µM | 8 µM | 7.4 µM
